We go through 13 compounds from ChEMBL document CHEMBL1201862, “PubChem BioAssay data set” (2004).

Among the test systems are EKVX; HOP-62; SK-MEL-28; OVCAR-4; HCC 2998; OVCAR-3; HOP-92; CAKI-1; OVCAR-8; U-251; RXF 393; PC-3; IGROV-1; SK-MEL-2; A498; HCT-15; MDA-MB-435; RPMI-8226; NCI-H522.
What all share (test): inhibition of tumour cell growth, NCI panel, 48 h

“And” between values parts separate entries of the source, which are not always exact repeats. Identical values can stand only once.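 Assay format: 96-well plates, 48-hour exposure. GI50 marks 50% less growth.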 The source made the active and inactive calls. Rule as the data show it: active = GI50 up to about 1.1 µM and inactive = higher. A value given as a limit tells only on which side of the number the result lay.

As for `C[C@@H]1CC[C@@H](C)[C@](C)(CCc2ccoc2)C/C=C\C=C/1C(=O)O`, the GI50 in the experiment on EKVX, with HOP-62, in the experiment on SK-MEL-28, in the experiment on OVCAR-4, with HCC 2998 and in the experiment on OVCAR-3 was > 50 µM (inactive) each time. For the same compound, the GI50 in the experiment with HOP-92, with CAKI-1, in the experiment on OVCAR-8, in the experiment with U-251, in the experiment on RXF 393 and in the experiment with PC-3 was > 50 µM (inactive) in each case. For the same compound, the GI50 in the experiment on IGROV-1 is > 50 µM (inactive); in the experiment with SK-MEL-2, > 50 µM (inactive); in the experiment on A498, > 50 µM (inactive); in the experiment on HCT-15 it was > 50 µM.

Consider `O=C(O)CNc1ncc2c(n1)-c1ccccc1OC2`, for which the GI50 with EKVX, in the experiment on MDA-MB-435, with HOP-62, in the experiment on SK-MEL-28, in the experiment on OVCAR-4 and in the experiment with OVCAR-3 was > 100 µM (inactive) each time. Also, the GI50 with HOP-92, in the experiment with CAKI-1, in the experiment on OVCAR-8, in the experiment with U-251, in the experiment with RXF 393 and in the experiment with RPMI-8226 was > 100 µM (inactive) each time. Besides, the GI50 with PC-3 was > 100 µM (inactive); in the experiment with IGROV-1, > 100 µM (inactive); in the experiment with SK-MEL-2, > 100 µM (inactive); in the experiment on HCT-15, > 100 µM.

For `COCOCCCCCO[Si](C)(C)C(C)(C)C`, the GI50 was 20 µM (inactive) with EKVX; 35.1 µM (inactive) in the experiment with SK-MEL-28; 17.7 µM (inactive) in the experiment with HCC 2998; 14.4 µM (inactive) in the experiment with OVCAR-3; 17.7 µM (inactive) in the experiment with HOP-92; 19.5 µM (inactive) in the experiment on OVCAR-8. Further, the GI50 was 13.7 µM (inactive) with NCI-H522; 15.8 µM (inactive) in the experiment with U-251; 16.6 µM (inactive) in the experiment on RXF 393; 16.5 µM (inactive) in the experiment with RPMI-8226; 32.6 µM (inactive) with IGROV-1; 16 µM (inactive) in the experiment on SK-MEL-2. Besides, the GI50 with A498 is 29.4 µM (inactive); in the experiment with HCT-15, 17.7 µM.

Consider `O=C1N/C(=N/N=C/C(O)C(O)C(O)CO)N/C1=C\c1c[nH]c2ccccc12` (stereo not drawn), for which the GI50 in the experiment with EKVX, in the experiment with MDA-MB-435, in the experiment with HOP-62, in the experiment on SK-MEL-28, in the experiment on OVCAR-4 and in the experiment on HCC 2998 was > 100 µM (inactive) throughout. The GI50 in the experiment on OVCAR-3, in the experiment with HOP-92, with CAKI-1, with OVCAR-8, with NCI-H522 and in the experiment with U-251 was > 100 µM (inactive) each time. Besides, the GI50 in the experiment with RXF 393 is > 100 µM (inactive); with RPMI-8226, > 100 µM (inactive); in the experiment on IGROV-1, > 100 µM (inactive); in the experiment with HCT-15, > 100 µM.

With `CCc1ccccc1NC(=O)C(=O)CC(=O)c1sc(Nc2ccccc2Cl)nc1C`, the GI50 in the experiment on EKVX is 52.4 µM (inactive); with MDA-MB-435, 25.6 µM (inactive); in the experiment on HOP-62, 31.6 µM (inactive); in the experiment with SK-MEL-28, 36 µM (inactive); in the experiment with OVCAR-4, 36.8 µM (inactive); with HCC 2998 it was 30.1 µM (inactive). The GI50 in the experiment on OVCAR-3 was 19.5 µM (inactive); in the experiment on CAKI-1 it was 46.1 µM (inactive); in the experiment on OVCAR-8, 35.1 µM (inactive); in the experiment with NCI-H522, 18.1 µM (inactive); in the experiment with U-251 it was 32.5 µM (inactive); with RXF 393, 24.9 µM (inactive). The GI50 is 19.2 µM (inactive) in the experiment with RPMI-8226; 26.9 µM (inactive) with PC-3; 40 µM (inactive) in the experiment with IGROV-1; 24.4 µM (inactive) in the experiment with SK-MEL-2; 30.6 µM in the experiment on HCT-15.

Regarding `Cc1cc2c(cc1Cl)SC(NNCCO)=NS2(=O)=O`, the GI50 in the experiment with EKVX, with MDA-MB-435, in the experiment with HOP-62, in the experiment on SK-MEL-28, with OVCAR-4 and in the experiment with HCC 2998 was > 100 µM (inactive) throughout. The GI50 with HOP-92, with CAKI-1, in the experiment with OVCAR-8, with U-251, in the experiment on RXF 393 and with RPMI-8226 was > 100 µM (inactive) in each case. The GI50 in the experiment on PC-3 is 86.3 µM (inactive); in the experiment on IGROV-1, > 100 µM (inactive); in the experiment with SK-MEL-2, > 100 µM (inactive); in the experiment on HCT-15, > 100 µM.

Consider `O=C(NCCCN(CCCCN(CCCNC(=O)C(F)(F)F)Cc1ccccc1)Cc1ccccc1)C(F)(F)F`, for which the GI50 is 12.6 µM (inactive) in the experiment with EKVX; 18.3 µM (inactive) in the experiment on MDA-MB-435; 12.6 µM (inactive) in the experiment on SK-MEL-28; 16.8 µM (inactive) in the experiment on OVCAR-4; 4.24 µM (inactive) in the experiment with HCC 2998; 10.5 µM (inactive) in the experiment on HOP-92. Also, the GI50 in the experiment on CAKI-1 was 13.6 µM (inactive); with OVCAR-8, 14 µM (inactive); in the experiment on NCI-H522, 9.51 µM (inactive); in the experiment on U-251 it was > 10 µM (inactive); in the experiment on RXF 393 it was 14.8 µM (inactive); with RPMI-8226, 16 µM (inactive). In addition, the figures for the GI50 in the experiment with IGROV-1, with A498 and in the experiment on HCT-15 were 13.4 µM (inactive), 20.6 µM (inactive) and 12.4 µM, respectively.

Consider `COC1OC(COC(=O)NCCCCC(=O)C(F)(F)C(F)(F)C(F)(F)C(F)(F)C(F)(F)C(F)(F)C(F)(F)F)C(O)C(O)C1O` (stereo not drawn), for which the GI50 in the experiment with MDA-MB-435 is 15.8 µM (inactive) and 16.6 µM (inactive); with HOP-62 it was 15 µM (inactive) and 16.2 µM (inactive); in the experiment on SK-MEL-28, 17.3 µM (inactive) and 16.7 µM (inactive); with OVCAR-4 it was 15 µM (inactive) and 16.7 µM (inactive); in the experiment on HCC 2998, 19.6 µM (inactive) and 19.5 µM (inactive); in the experiment on OVCAR-3, 15.5 µM (inactive) and 14.9 µM (inactive). Besides, the GI50 with CAKI-1 is 16.4 µM (inactive) and 17.2 µM (inactive); with U-251, 19.3 µM (inactive) and 11.9 µM (inactive); in the experiment with RXF 393, 13.6 µM (inactive) and 15.1 µM (inactive); with RPMI-8226 it was 28.9 µM (inactive) and 29.9 µM (inactive); with PC-3, 12.9 µM (inactive) and 13.6 µM (inactive); in the experiment with IGROV-1 it was 16.5 µM (inactive) and 14.3 µM (inactive). The GI50 was 22.2 µM (inactive) and 21.8 µM (inactive) in the experiment on SK-MEL-2; 18.5 µM and 19.4 µM in the experiment on HCT-15.

For the compound `O=C1C=Cc2c1csc2Br`, the GI50 in the experiment with EKVX was 87.5 µM (inactive); with MDA-MB-435 it was 32.1 µM (inactive); in the experiment with HOP-62, > 100 µM (inactive); in the experiment on SK-MEL-28 it was 63.1 µM (inactive); in the experiment with OVCAR-4, 70.8 µM (inactive); in the experiment with OVCAR-3, 71 µM (inactive). In addition, the GI50 in the experiment with CAKI-1 is > 100 µM (inactive); in the experiment on OVCAR-8, 38.2 µM (inactive); in the experiment on NCI-H522 it was 18.7 µM (inactive); with U-251, 51.2 µM (inactive); in the experiment with RXF 393, 71.4 µM (inactive); in the experiment on PC-3, 65.3 µM (inactive). Further, the GI50 with IGROV-1 is 38.3 µM (inactive); in the experiment on SK-MEL-2, > 100 µM (inactive); in the experiment with HCT-15, 28.6 µM.

Take `CC(=O)CCC(=O)CC(O)(C(F)(F)F)C(F)(F)F`: the GI50 was > 10 µM (inactive) in the experiment on EKVX; 19.4 µM (inactive) in the experiment with MDA-MB-435; 17.9 µM (inactive) with HOP-62; 22.7 µM (inactive) in the experiment on SK-MEL-28; 19.7 µM (inactive) in the experiment on OVCAR-4; 18.4 µM (inactive) in the experiment on HCC 2998. Further, the GI50 is 13.6 µM (inactive) in the experiment on HOP-92; 19.6 µM (inactive) in the experiment with OVCAR-8; 17.2 µM (inactive) in the experiment on U-251; 18.6 µM (inactive) with RXF 393; 17.2 µM (inactive) with RPMI-8226; 15.4 µM (inactive) in the experiment with IGROV-1. Also, the results for the GI50 with A498 and in the experiment on HCT-15 were 5.01 µM (inactive) and 20.1 µM, respectively.

Turning to `COc1cc(/C=C/C(=O)c2ccc(NS(=O)(=O)c3cc([N+](=O)[O-])ccc3C)cc2)cc(OC)c1OC`, the GI50 was 5.36 µM (inactive) in the experiment on EKVX; 3.71 µM (inactive) in the experiment on MDA-MB-435; 2.99 µM (inactive) in the experiment with HOP-62; 8.43 µM (inactive) with SK-MEL-28; 3.19 µM (inactive) with OVCAR-4; 3.15 µM (inactive) with OVCAR-3. Further, the GI50 is 2.98 µM (inactive) in the experiment with HOP-92; 3.74 µM (inactive) in the experiment with CAKI-1; 2.49 µM (inactive) with OVCAR-8; 3.37 µM (inactive) with U-251; 2.81 µM (inactive) in the experiment on RXF 393; 1.96 µM (inactive) in the experiment with RPMI-8226. In addition, the GI50 in the experiment with PC-3 is 5.9 µM (inactive); with IGROV-1, 3.88 µM (inactive); in the experiment on SK-MEL-2 it was 2.67 µM (inactive); with HCT-15, 3.04 µM.

Regarding `COc1cccc(-c2cc(O)c3cc(OC)ccc3n2)c1`, the GI50 was 0.92 µM (active) in the experiment with EKVX; 0.446 µM (active) with HOP-62; 1.71 µM (inactive) in the experiment with OVCAR-4; 0.291 µM (active) with HCC 2998; 0.188 µM (active) in the experiment on OVCAR-3; 0.488 µM (active) in the experiment with HOP-92. The GI50 with CAKI-1 is 0.475 µM (active); with OVCAR-8, 0.344 µM (active); in the experiment on U-251, 0.305 µM (active); in the experiment with RXF 393, 0.199 µM (active); in the experiment with RPMI-8226, 0.34 µM (active); in the experiment with PC-3 it was 0.338 µM (active). Also, the GI50 was 0.483 µM (active) with IGROV-1, 0.321 µM (active) with SK-MEL-2, 0.0158 µM (active) in the experiment on A498 and 0.366 µM in the experiment with HCT-15.

Regarding `C#Cc1cccc(N2C(=O)CC(=P(c3ccccc3)(c3ccccc3)c3ccccc3)C2=O)c1`, the GI50 was 44.2 µM (inactive) with EKVX; 67.1 µM (inactive) in the experiment with HOP-62; 81.3 µM (inactive) in the experiment on SK-MEL-28; 69.2 µM (inactive) with OVCAR-4; 70.8 µM (inactive) in the experiment on HCC 2998; 31.5 µM (inactive) with OVCAR-3. Further, the GI50 in the experiment with CAKI-1 is > 100 µM (inactive); in the experiment with OVCAR-8, > 100 µM (inactive); with NCI-H522, 25 µM (inactive); with U-251 it was 71.8 µM (inactive); in the experiment with RPMI-8226 it was 6.4 µM (inactive); in the experiment with SK-MEL-2 it was 84.7 µM (inactive). In addition, the GI50 with A498 was > 100 µM (inactive).
